Source: US8173813B2, “Quinolone and tetrahydroquinolone and related compounds having NOS inhibitory activity” (NeurAxon, Inc., priority 2007, dated 2012)
Where two headings read alike, the source gives them in different places.

Assays:
Assay type in all cases: biochemical
[1] = target: Nitric oxide synthase (endothelial, human recombinant) eNOS (Homo sapiens, UniProt P29474); assay: Human eNOS enzyme assay ([3H]L-arginine to [3H]L-citrulline)
[2] = target: Nitric oxide synthase (neuronal, human recombinant) nNOS (Homo sapiens, UniProt P29475); assay: Human nNOS enzyme assay ([3H]L-arginine to [3H]L-citrulline)
[3] = target: Recombinant human inducible NOS (iNOS) (Homo sapiens, UniProt P35228); assay: Human iNOS enzyme assay, radiometric
[4] = human recombinant eNOS, values without parentheses, read-out: heNOS IC50
[5] = human enzymes, ratio of eNOS IC50 to nNOS IC50
[6] = human recombinant nNOS, values without parentheses, read-out: hnNOS IC50
[7] = human recombinant iNOS, values without parentheses, read-out: hiNOS IC50

Recombinant human inducible NOS (iNOS), sequence (P35228 whole entry): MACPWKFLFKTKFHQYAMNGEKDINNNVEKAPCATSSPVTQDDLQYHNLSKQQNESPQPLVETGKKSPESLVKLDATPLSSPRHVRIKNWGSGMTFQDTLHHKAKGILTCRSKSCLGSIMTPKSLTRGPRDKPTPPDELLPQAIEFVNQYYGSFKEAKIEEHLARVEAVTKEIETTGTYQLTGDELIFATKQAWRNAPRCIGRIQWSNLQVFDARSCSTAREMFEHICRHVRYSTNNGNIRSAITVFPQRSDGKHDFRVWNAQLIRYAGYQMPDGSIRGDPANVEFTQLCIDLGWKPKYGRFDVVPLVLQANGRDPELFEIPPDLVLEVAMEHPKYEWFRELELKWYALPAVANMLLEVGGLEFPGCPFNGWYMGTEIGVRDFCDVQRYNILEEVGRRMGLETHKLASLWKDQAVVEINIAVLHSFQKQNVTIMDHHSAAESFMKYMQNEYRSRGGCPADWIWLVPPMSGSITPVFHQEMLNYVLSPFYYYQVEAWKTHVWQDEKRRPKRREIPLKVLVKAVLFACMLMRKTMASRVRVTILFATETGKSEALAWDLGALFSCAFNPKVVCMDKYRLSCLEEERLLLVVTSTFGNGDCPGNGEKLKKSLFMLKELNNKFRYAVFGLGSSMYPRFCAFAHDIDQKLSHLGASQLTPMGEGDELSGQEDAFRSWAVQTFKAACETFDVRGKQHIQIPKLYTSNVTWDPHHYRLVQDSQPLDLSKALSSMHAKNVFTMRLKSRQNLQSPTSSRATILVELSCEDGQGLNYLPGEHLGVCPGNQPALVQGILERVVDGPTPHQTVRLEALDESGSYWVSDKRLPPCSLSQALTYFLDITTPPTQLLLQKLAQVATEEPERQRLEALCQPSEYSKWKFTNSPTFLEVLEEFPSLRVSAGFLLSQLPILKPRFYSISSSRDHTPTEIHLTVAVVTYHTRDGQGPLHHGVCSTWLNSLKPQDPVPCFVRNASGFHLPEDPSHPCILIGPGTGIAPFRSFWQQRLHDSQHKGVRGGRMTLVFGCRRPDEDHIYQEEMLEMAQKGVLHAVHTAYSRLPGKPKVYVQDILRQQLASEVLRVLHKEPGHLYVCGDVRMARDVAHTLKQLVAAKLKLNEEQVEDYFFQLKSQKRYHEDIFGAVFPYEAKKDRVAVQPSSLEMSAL
Nitric oxide synthase (neuronal, human recombinant) nNOS, sequence (P29475 whole entry): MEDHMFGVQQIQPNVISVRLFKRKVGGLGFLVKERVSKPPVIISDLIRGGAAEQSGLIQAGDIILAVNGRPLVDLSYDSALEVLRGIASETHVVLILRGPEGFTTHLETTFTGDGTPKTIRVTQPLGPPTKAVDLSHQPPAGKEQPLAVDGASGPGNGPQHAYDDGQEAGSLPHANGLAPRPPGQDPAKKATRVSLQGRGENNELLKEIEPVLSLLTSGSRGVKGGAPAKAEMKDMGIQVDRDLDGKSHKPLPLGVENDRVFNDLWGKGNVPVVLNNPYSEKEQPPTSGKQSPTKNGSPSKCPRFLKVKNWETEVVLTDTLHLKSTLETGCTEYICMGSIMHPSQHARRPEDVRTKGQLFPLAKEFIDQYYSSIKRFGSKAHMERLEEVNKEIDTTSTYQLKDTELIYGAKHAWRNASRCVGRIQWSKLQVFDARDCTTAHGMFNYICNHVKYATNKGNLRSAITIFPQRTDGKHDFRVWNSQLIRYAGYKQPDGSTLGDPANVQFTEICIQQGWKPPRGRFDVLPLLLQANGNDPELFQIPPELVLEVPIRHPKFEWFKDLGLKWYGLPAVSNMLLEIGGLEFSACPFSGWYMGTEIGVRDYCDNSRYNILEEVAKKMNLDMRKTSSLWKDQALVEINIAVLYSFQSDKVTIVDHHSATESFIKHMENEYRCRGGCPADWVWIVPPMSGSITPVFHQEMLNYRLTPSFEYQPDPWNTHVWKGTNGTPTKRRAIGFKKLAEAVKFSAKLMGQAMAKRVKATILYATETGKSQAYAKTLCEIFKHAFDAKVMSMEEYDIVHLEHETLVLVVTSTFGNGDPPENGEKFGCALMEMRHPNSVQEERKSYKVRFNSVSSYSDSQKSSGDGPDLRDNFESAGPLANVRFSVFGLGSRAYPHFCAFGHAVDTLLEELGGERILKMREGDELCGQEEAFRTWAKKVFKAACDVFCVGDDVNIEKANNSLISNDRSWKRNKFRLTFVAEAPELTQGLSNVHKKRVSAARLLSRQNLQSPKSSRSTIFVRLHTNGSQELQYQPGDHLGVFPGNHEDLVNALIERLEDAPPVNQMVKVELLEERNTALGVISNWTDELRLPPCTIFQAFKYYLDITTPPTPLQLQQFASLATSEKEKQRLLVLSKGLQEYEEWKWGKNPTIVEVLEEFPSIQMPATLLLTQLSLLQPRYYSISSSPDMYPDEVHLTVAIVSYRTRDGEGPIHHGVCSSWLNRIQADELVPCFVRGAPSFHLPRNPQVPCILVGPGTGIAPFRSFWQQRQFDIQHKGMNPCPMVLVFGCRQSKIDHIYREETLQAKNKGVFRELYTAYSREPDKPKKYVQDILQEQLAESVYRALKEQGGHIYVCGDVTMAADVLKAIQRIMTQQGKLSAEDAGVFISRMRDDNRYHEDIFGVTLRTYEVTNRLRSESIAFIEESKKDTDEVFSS
Nitric oxide synthase (endothelial, human recombinant) eNOS, sequence (P29474 2-1203): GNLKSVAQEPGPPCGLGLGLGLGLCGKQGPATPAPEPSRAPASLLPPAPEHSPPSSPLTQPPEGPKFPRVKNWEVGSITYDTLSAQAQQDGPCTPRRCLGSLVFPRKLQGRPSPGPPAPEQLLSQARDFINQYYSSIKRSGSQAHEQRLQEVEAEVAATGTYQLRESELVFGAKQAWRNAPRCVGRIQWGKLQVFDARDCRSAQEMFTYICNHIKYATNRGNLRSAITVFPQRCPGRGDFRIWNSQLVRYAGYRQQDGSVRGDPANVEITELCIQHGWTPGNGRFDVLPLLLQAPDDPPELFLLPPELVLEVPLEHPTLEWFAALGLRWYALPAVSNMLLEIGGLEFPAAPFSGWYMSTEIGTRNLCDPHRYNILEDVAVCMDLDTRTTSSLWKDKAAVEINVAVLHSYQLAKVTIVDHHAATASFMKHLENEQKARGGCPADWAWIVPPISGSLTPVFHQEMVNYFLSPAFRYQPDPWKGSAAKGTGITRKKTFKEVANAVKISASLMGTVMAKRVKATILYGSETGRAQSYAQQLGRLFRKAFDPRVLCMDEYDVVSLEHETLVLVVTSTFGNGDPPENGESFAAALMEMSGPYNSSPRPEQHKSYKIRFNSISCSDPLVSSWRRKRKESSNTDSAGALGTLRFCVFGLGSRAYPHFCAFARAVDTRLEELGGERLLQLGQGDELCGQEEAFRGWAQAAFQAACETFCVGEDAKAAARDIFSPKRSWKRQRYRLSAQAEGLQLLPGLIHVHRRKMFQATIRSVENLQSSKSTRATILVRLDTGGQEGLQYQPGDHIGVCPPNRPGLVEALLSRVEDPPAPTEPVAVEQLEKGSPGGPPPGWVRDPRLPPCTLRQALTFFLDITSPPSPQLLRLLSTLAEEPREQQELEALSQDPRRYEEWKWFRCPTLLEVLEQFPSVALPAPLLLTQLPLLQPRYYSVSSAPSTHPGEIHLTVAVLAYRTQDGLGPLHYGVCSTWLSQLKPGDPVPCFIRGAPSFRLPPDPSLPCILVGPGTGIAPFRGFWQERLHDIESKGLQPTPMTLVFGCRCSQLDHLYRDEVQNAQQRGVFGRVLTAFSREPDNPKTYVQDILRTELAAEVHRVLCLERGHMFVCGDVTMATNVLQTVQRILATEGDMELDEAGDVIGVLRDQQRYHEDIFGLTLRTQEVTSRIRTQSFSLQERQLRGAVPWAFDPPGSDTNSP

Row | Compound | IC50 [1, 4] [µM] | Selectivity eNOS/nNOS [2, 5] | IC50 [2, 6] [nM] | IC50 [3, 7] [µM] | IC50 ([1]; read-out: heNOS IC50) [µM] | other results
1 | CC(CN1C(=O)CCc2cc(NC(=N)c3cccs3)ccc21)N1CCCC1 (stereo not drawn) [Example 15, N-(2-oxo-1-(2-(pyrrolidin-1-yl)propyl)-1,2,3,4-tetrahydroquinolin-6-yl)thiophene-2-carboximidamide] | 52.6 | 9.1 | 5800 | > 100 | – | –
2 | CN(C)CCN1CCc2cc(NC(=N)c3cccs3)ccc21 [Example 68, N-(1-(2-(Dimethylamino)ethyl)indolin-5-yl)thiophene-2-carboximidamide] | 12.9 | 316 | 41 | – | – | –
3 | CN(C)CCCC1Cc2cc(NC(=N)c3cccs3)ccc2NC1=O.Cl.Cl (stereo not drawn) [Example 10, N-(3-(3-(dimethylamino)propyl)-2-oxo-1,2,3,4-tetrahydroquinolin-6-yl)thiophene-2-carboximidamide dihydrochloride] | 10.8 | 54.5 | 198 | > 100 | – | –
4 | CNCCN1C(=O)CCc2cc(NC(=N)c3cccs3)ccc21 [Example 34, N-(1-(2-(Methylamino)ethyl)-2-oxo-1,2,3,4-tetrahydroquinolin-6-yl)thiophene-2-carboximidamide] | 45.1 | 115 | 390 | 1.28 | – | –
5 | CNCCCN1CCCc2cc(NC(=N)c3cccs3)ccc21 [Example 63, N-(1-(3-(methylamino)propyl)-2,3,4-tetrahydroquinolin-6-yl)thiophene-2-carboximidamide] | – | – | 235 | – | 22.5 | –
6 | CN1CCC(N2CCCCc3cc(NC(=N)c4cccs4)ccc32)C1 (stereo not drawn) [Example 46, N-(1-(1-Methylpyrrolidin-3-yl)-2,3,4,5-tetrahydro-1H-benzo[b]azepin-7-yl)thiophene-2-carboximidamide] | – | – | – | – | 60.5 | IC50 ([2]; read-out: hnNOS IC50): 80 nM
7 | N=C(Nc1ccc2c(c1)CCC(=O)N2CCCN1CCOCC1)c1cccs1 [Example 5, N-(1-(3-morpholinopropyl)-2-oxo-1,2,3,4-tetrahydroquinolin-6-yl)thiophene-2-carboximidamide] | 105 | – | 5460 | – | – | Selectivity eNOS/nNOS [2]: 19.2
8 | N=C(Nc1ccc2c(c1)C(C1CCNC1)C(=O)N2)c1cccs1 (stereo not drawn) [Example 43, N-(2-Oxo-3-(pyrrolidin-3-yl)indolin-5-yl)thiophene-2-carboximidamide] | 27.4 | 152 | 180 | 7.03 | – | –
9 | CC(CN1CCCc2cc(NC(=N)c3cccs3)ccc21)N1CCCC1 (stereo not drawn) [Example 16, N-(1-(2-(pyrrolidin-1-yl)propyl)-1,2,3,4-tetrahydroquinolin-6-yl)thiophene-2-carboximidamide] | 33.7 | 48.1 | 700 | 19.4 | – | –
10 | CNC1CCC(N2CCc3cc(NC(=N)c4cccs4)ccc32)CC1 (stereo not drawn) [Example 71, N-(1-(4-(Methylamino)cyclohexyl)indolin-5-yl)thiophene-2-carboximidamide] | 34.1 | – | 105 | – | – | –
11 | CN1CCC(N2C(=O)CCc3cc(NC(=N)c4cccs4)ccc32)CC1 [Example 22, N-(1-(1-Methylpiperidin-4-yl)-2-oxo-1,2,3,4-tetrahydroquinolin-6-yl)thiophene-2-carboximidamide] | – | – | – | – | – | IC50 ([1]; heNOS IC50): 151 µM; Selectivity eNOS/nNOS [2]: 87.8; IC50 ([2]; hnNOS IC50): 1720 nM; IC50 ([3]; hiNOS IC50): > 100 µM
12 | N=C(Nc1ccc2c(c1)CCCC(=O)N2CCN1CCCC1)c1cccs1 [Example 26, N-(2-Oxo-1-(2-(pyrrolidin-1-yl)ethyl)-2,3,4,5-tetrahydro-1H-benzo[b]azepin-7-yl)thiophene-2-carboximidamide] | 80.1 | 8.1 | 9910 | > 100 | – | –
13 | CN1CCCC1CCN1C(=O)CCc2cc(NC(=N)c3cccs3)ccc21 (stereo not drawn) [Example 13, N-(1-(2-(1-methylpyrrolidin-2-yl)ethyl)-2-oxo-1,2,3,4-tetrahydroquinolin-6-yl)thiophene-2-carboximidamide] | 68.9 | 62.6 | 1100 | – | – | –
14 | N=C(Nc1ccc2c(c1)CCN2C1CCNC1)c1cccs1 (stereo not drawn) [Example 49, N-(1-(Pyrrolidin-3-yl)indolin-5-yl)thiophene-2-carboximidamide] | 5.45 | – | 80 | – | – | –
15 | N=C(Nc1ccc2c(c1)CCC(=O)N2CCN1CCCC1)c1cccs1 [Example 6, N-(2-oxo-1-(2-(pyrrolidin-1-yl)ethyl)-1,2,3,4-tetrahydroquinolin-6-yl)thiophene-2-carboximidamide] | – | – | 165 | > 100 | 29.8 | –
16 | CCN(C)CCN1CCCc2cc(NC(=N)c3cccs3)ccc21 [Example 51, N-(1-(2-(ethyl(methyl)amino)ethyl)-1,2,3,4-tetrahydroquinolin-6-yl)thiophene-2-carboximidamide] | – | – | 90 | – | 33.3 | Selectivity eNOS/nNOS [2]: 370

Row | Compound | IC50 [1, 4] [µM] | Selectivity eNOS/nNOS [2, 5] | IC50 [2, 6] [nM] | IC50 [3, 7] [µM] | IC50 ([1]; read-out: heNOS IC50) [µM] | other results
17 | N=C(Nc1ccc2c(c1)CCC(=O)N2CCCN1CCCCC1)c1cccs1 [Example 9, N-(1-(3-(piperidin-1-yl)propyl)-2-oxo-1,2,3,4-tetrahydroquinolin-6-yl)thiophene-2-carboximidamide] | 10.2 | 12.8 | 798 | – | – | –
18 | CN(CCO)CCCN1CCCc2cc(NC(=N)c3cccs3)ccc21 [Example 69, N-(1-(3-((2-Hydroxyethyl)(methyl)amino)propyl)-1,2,3,4-tetrahydroquinolin-6-yl)thiophene-2-carboximidamide] | 39.9 | 511 | 78 | – | – | –
19 | N=C(Nc1ccc2c(c1)CCN2CCN1CCCC1)c1cccs1 [Example 67, N-(1-(2-(Pyrrolidin-1-yl)ethyl)indolin-5-yl)thiophene-2-carboximidamide] | 26.9 | 292 | 92 | – | – | –
20 | CN1CCC(N2CCCc3cc(NC(=N)c4cccs4)ccc32)C1 (stereo not drawn) [Example 35, N-(1-(1-Methylpyrrolidin-3-yl)-1,2,3,4-tetrahydroquinolin-6-yl)thiophene-2-carboximidamide] | – | – | – | 4.9 | 27.5 | IC50 ([2]; read-out: hnNOS IC50): 360 nM
21 | N=C(Nc1ccc2c(c1)CCCN2CCN1CCOCC1)c1cccs1 [Example 64, N-(1-(2-morpholinoethyl)-1,2,3,4-tetrahydroquinolin-6-yl)thiophene-2-carboximidamide] | 82.5 | 121 | 680 | – | – | –
22 | CN1CCC(N2CCc3cc(NC(=N)c4cccs4)ccc32)C1 (stereo not drawn) [Example 50, N-(1-(1-Methylpyrrolidin-3-yl)indolin-5-yl)thiophene-2-carboximidamide] | 21.2 | – | 430 | – | – | –
23 | CN1CCC(N2CCCCc3cc(NC(=N)c4cccs4)ccc32)CC1 [Example 39, N-(1-(1-Methylpiperidin-4-yl)-2,3,4,5-tetrahydro-1H-benzo[b]azepin-7-yl)thiophene-2-carboximidamide] | – | – | – | – | 20 | IC50 ([2]; read-out: hnNOS IC50): 2960 nM; IC50 ([3]; read-out: hiNOS IC50): 1.34 µM
24 | CN(C)CCN1C(=O)CCc2cc(NC(=N)c3cccs3)cc(F)c21 [Example 41, N-(1-(2-(Dimethylamino)ethyl)-8-fluoro-2-oxo-1,2,3,4-tetrahydroquinolin-6-yl)thiophene-2-carboximidamide] | – | – | 3300 | 3.27 | 194 | –
25 | CNCCN1CCCc2cc(NC(=N)c3cccs3)cc(F)c21.Cl.Cl [Example 52, N-(8-fluoro-1-(2-(methylamino)ethyl)-1,2,3,4-tetrahydroquinolin-6-yl)thiophene-2-carboximidamide dihydrochloride] | 13.5 | 45 | 300 | – | – | –
26 | CN1CCC(N2CCCc3cc(NC(=N)c4cccs4)ccc32)CC1 [Example 18, N-(1-(1-methylpiperidin-4-yl)-1,2,3,4-tetrahydroquinolin-6-yl)thiophene-2-carboximidamide] | – | – | – | – | – | IC50 ([1]; heNOS IC50): 50 µM; Selectivity eNOS/nNOS [2]: 5.7; IC50 ([2]; hnNOS IC50): 8800 nM; IC50 ([3]; hiNOS IC50): > 100 µM
27 | N=C(Nc1ccc2c(c1)CCCCN2C1CCNC1)c1cccs1 (stereo not drawn) [Example 48, N-(1-(Pyrrolidin-3-yl)-2,3,4,5-tetrahydro-1H-benzo[b]azepin-7-yl)thiophene-2-carboximidamide] | – | – | – | 0.61 | 75 | IC50 ([2]; read-out: hnNOS IC50): 330 nM
28 | CNCCN1CCCCc2cc(NC(=N)c3cccs3)ccc21 [Example 36, N-(1-(2-(Methylamino)ethyl)-2,3,4,5-tetrahydro-1H-benzo[b]azepin-7-yl)thiophene-2-carboximidamide] | – | – | 380 | – | 47.1 | –
29 | CCN(CC)CCN1CCCc2cc(NC(=N)c3cccs3)ccc21 [Example 53, N-(1-(2-(diethylamino)ethyl)-1,2,3,4-tetrahydroquinolin-6-yl)thiophene-2-carboximidamide] | – | – | 250 | – | – | –
30 | N=C(Nc1ccc2c(c1)CCC(=O)N2CCCN1CCCC1)c1cccs1 [Example 8, N-(1-(3-(pyrrolidin-1-yl)propyl)-2-oxo-1,2,3,4-tetrahydroquinolin-6-yl)thiophene-2-carboximidamide] | – | – | – | – | 24.5 | –
31 | CNC1CCC(N2CCc3cc(NC(=N)c4cccs4)ccc32)CC1 (stereo not drawn) [Example 70, N-(1-(4-(Methylamino)cyclohexyl)indolin-5-yl)thiophene-2-carboximidamide] | 17.9 | 86.5 | 210 | – | – | –
32 | CN1CCCC1CCN1CCCCc2cc(NC(=N)c3cccs3)ccc21 (stereo not drawn) [Example 45, N-(1-(2-(1-Methylpyrrolidin-2-yl)ethyl)-2,3,4,5-tetrahydro-1H-benzo[b]azepin-7-yl)thiophene-2-carboximidamide] | – | – | 1800 | – | 30.8 | –
